These results are taken from publication PMC7740640 (Xenobiotica; the fate of foreign compounds in biological …, 2020).

Molecules are shown by their SMILES. Read-outs that look alike come from different tables or passages of the source.

Series [1] relates to human liver microsomes (HLM). As to the kind of experiment: Inhibition of C152 metabolism, HLM. It is filed as biochemical. To be noted: 30 μM C152 as substrate.
In another series the target is T1, CYP2B6 (Homo sapiens, UniProt P20813).
T1 sequence (P20813 1-491): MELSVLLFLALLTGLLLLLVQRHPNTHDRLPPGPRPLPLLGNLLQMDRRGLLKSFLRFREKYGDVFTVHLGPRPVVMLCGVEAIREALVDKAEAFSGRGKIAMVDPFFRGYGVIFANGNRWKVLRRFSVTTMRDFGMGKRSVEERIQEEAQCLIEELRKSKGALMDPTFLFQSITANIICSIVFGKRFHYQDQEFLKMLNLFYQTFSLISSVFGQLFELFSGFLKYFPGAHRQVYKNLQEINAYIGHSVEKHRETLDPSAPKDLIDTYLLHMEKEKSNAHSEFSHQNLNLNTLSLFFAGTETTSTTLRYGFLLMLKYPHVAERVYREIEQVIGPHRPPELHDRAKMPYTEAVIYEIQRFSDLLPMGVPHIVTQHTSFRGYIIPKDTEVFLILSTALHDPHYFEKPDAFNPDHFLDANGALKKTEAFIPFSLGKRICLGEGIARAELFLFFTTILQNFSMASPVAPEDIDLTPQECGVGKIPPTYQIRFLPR
As to the kind of experiment: Inhibition of C152 metabolism, SS.

A further series deals with CYP3A4 (Homo sapiens, UniProt P08684). As to the kind of experiment: Inhibition of C152 metabolism, SS.
For a further series, the target named is CYP2C19 (Homo sapiens, UniProt P33261). The series is described as follows: Inhibition of C152 metabolism, SS.
The next series has as its target T2, CYP1A2 (Homo sapiens, UniProt P05177).
T2 sequence (P05177 2-516 limits assumed): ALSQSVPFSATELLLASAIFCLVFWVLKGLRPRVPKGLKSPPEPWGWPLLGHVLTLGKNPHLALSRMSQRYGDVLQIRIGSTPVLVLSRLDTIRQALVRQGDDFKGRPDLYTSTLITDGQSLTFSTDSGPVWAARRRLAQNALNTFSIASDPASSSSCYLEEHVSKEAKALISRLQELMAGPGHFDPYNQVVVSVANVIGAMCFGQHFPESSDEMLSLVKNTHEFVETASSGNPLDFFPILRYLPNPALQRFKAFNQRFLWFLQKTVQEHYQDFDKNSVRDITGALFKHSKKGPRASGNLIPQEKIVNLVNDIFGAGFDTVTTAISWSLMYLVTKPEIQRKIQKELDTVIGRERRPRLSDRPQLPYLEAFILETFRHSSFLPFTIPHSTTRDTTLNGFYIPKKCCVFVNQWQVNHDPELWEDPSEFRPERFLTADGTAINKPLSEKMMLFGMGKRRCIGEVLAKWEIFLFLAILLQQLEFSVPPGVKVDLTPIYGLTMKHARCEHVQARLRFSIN
The series is described as follows: C152 metabolism. It is filed as in vitro ADME. The settings on record: SS(1A2); initial substrate C152 28 μM; scanning fluorimetry.

[2] abbreviates: SS(2B6), 30 μM C152 as substrate.
Setting [3] is: SS(3A4), 30 μM C152 as substrate.

Sequence of CYP3A4 (P08684 2-503 limits assumed): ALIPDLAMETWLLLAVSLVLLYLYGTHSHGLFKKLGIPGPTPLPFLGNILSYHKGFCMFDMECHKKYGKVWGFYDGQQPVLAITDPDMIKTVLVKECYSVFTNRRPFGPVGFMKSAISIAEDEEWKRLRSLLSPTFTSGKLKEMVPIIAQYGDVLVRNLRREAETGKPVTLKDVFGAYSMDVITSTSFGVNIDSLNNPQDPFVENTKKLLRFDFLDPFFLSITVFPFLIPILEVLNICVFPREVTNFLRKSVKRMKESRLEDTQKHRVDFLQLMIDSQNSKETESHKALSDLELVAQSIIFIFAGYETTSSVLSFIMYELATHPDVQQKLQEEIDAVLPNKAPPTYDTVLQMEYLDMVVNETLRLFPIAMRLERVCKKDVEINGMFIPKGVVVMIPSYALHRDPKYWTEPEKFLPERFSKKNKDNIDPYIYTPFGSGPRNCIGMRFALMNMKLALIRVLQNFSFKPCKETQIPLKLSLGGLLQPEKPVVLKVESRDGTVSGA
Sequence of CYP2C19 (P33261 whole entry): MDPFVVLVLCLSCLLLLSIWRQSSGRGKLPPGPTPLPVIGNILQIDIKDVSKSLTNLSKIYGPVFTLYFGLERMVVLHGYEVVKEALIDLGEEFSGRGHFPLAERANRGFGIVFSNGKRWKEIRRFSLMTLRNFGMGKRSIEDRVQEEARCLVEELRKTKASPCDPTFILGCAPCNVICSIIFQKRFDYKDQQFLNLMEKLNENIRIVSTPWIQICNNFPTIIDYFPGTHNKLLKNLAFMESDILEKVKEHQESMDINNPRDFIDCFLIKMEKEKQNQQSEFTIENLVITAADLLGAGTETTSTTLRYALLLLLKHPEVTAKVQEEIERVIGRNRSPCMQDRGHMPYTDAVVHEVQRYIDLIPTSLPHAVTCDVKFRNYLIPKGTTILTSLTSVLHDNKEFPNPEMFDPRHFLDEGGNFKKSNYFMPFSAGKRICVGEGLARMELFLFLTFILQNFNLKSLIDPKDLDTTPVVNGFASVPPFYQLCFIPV

One may read the IC50 as the concentration at which inhibition is half-maximal. Turning to `CC[C@@]1(c2ccccc2)NC(=O)N(Cc2ccccc2)C1=O` [BNVL, (S)-(+)-N-3-benzylnirvanol], the figures for the IC50 (in series [1]; against CYP2B6 (setting [2]); against CYP3A4 (setting [3])) were 0.51 ± 0.03 µM, 8.5 ± 2.3 µM and 27 ± 3 µM, respectively. Also, the “Inhibition (maximal amplitude)” value on CYP2B6 (setting [2]) came to 81±7%; on CYP3A4 (setting [3]), 59±10%.
`Clc1ccc(Cc2ccncc2)cc1` [CBP, 4-(4-Chlorobenzyl)pyridine]: the 50% inhibitory concentration (IC50) in series [1] was determined as 225 ± 30 µM; against CYP2B6 it was 0.038 ± 0.016 µM; at CYP3A4 it was 225 ± 73 µM; against CYP2C19, 215 ± 118 µM. For the same molecule, the “Inhibition (maximal amplitude)” value in series [1] is reported as 88±12%.
As to `Clc1ccccc1C(c1ccccc1)(c1ccccc1)n1ccnc1` [CTZ, clotrimazole], the IC50 on CYP2C19 is 0.2 ± 0.11 µM.
Turning to `CNc1ccc2c(C(F)(F)F)cc(=O)oc2c1` [DC152, 7-methylamino-4-trifluoromethyl coumarin], the “maximal level of formation of DC152” value on CYP1A2 is reported as ~ 4 μM.
Consider `CC(=O)N1CCN(c2ccc(OCC3COC(Cn4ccnc4)(c4ccc(Cl)cc4Cl)O3)cc2)CC1` (stereo not drawn) [KCZ, ketoconazole], for which, in series [1], the IC50 was found to be 1.9 ± 0.2 µM and the “Inhibition (maximal amplitude)” value was 89±7%. This molecule also showed an IC50 at CYP2B6 of 9.5 ± 2.8 µM.
